One series concerns MV4;11-PGP cell line. The series is described as follows: CellTiter-Glo cell viability assay, MV4;11-PGP. The class given is cell-based. The arrangement: unit of the concentration uncertain. The note with it: second set of experiments. As to the method: (§1) The influence of efflux pumps on the antitumor activity of the test compounds at steady state (more clinically relevant) were evaluated using P-gp-transfected AML cells (MV4;11 cells) in 6-day viability assays.
(§2) A P-gp-expressing KMT2A(MLL)-rearranged cell line model was developed by lentiviral transduction of the MV4;11 parental cell line and then selection for either Luciferase ORF (MV4;11-Control) or P-gp ORF (MV4;11-PGP).
(§3) […] Cell viability was measured by CellTiter-Glo® Luminescent Cell Viability Assay (CTG assay, Promega Corp.) and % Viability was quantified by normalizing to the luminescence values of DMSO-only treated cells. The dose-response curves and IC50's were calculated using GraphPad Prism 9.4.1.
(§4) The measured luminescence in the live cells of the MV4;11-Control and MV4;11-PGP cells that were treated with Compound I only (+DMSO), Compound I+posaconazole […], and valspodar (1 mM) are shown in FIGS. 5A and 5B.
(§5) In a second set of experiments, MV4;11-Control and MV4;11-PGP cell lines were treated as described above with five menin inhibitors, including Compound I, SNDX-5613, Compound A, Compound B, and Compound C, at concentrations ranging from 0 to 1000 nM. All tested compounds dropped in potency due to the P-gp expression as shown in FIGS. 6A-6J and in Tables 5 and 6 (indicated by increased IC50 values between “MV4;11-Control (Compound+DMSO)” and “MV4;11-PGP (Compound+DMSO)” entries).
For orientation: ATP-based viability assays read luminescence as a measure of living cells.

The subject of another series is MV4;11-Control cell line. The series is described as follows: CellTiter-Glo cell viability assay, MV4;11-Control. The class given is cell-based. The arrangement: unit of the concentration uncertain. The note with it: second set of experiments. As to the method:
as §1, §2, §3, §4, §5

Series [1] deals with T1, P-gp (Homo sapiens, UniProt P08183). The experiment in a line: P-gp substrate assessment using MDR1-MDCK monolayers (Example 1, +/- valspodar). The class given is in vitro ADME. The arrangement: expressed in transfected cells; host or cells: MDR1-MDCK cells. The settings on record: 12-well plates, QC of MDR1-MDCK cell batch. As to the method:
MDR1-MDCK cell monolayers were grown to confluence on collagen-coated, microporous membranes in 12-well assay plates. Details of the plates and their certification are shown below. The permeability assay buffer was Hanks' balanced salt solution (HBSS) containing 10 mM HEPES and 15 mM glucose at a pH of 7.4. The buffer in the receiver chamber also contained 1% bovine serum albumin. The dosing solution concentration was 5 μM of test article in the assay buffer+/−1 μM valspodar. Cells were first pre-incubated for 30 min with HBSS containing+/−1 μM valspodar. Cell monolayers were dosed on the apical side (A-to-B) or basolateral side (B-to-A) and incubated at 37° C. with 5% CO2 in a humidified incubator. Samples were taken from the donor and receiver chambers at 120 min. Each determination was performed in duplicate. The flux of lucifer yellow was also measured post-experimentally for each monolayer to ensure no damage was inflicted to the cell monolayers during the flux period. All samples were assayed by LC-MS/MS using electrospray ionization. Liquid chromatography conditions are summarized as follows: Column: Thermo BDS Hypersil C18 30×2.1 mm, […], with guard column; M.P. Buffer: 25 mM ammonium formate buffer, pH 3.5; Aqueous Reservoir (A): 90% water, 10% buffer; Organic Reservoir (B): 90% acetonitrile, 10% buffer; Flow Rate: 350 μL/minute; Total run time: 3.5 min; Autosampler: 10 μL injection volume; Autosampler wash: water/methanol/2-propanol: 1/1/1; with 0.2% formic acid.
The apparent permeability (Papp) and percent recovery were calculated as follows: […]
where, • dCr/dt is the slope of the cumulative concentration in the receiver compartment versus time in μM s^−1; • Vr is the volume of the receiver compartment in cm^3; • Vd is the volume of the donor compartment in cm^3; • A is the area of the insert (1.13 cm^2 for 12-well); • CA is the average of the nominal dosing concentration and the measured 120 minute donor concentration in μM; • CN is the nominal concentration of the dosing solution in μM; • Cr^final is the cumulative receiver concentration in μM at the end of the incubation period; • Cd^final is the concentration of the donor in μM at the end of the incubation period.
Efflux ratio (ER) is defined as Papp (B-to-A)/Papp (A-to-B).
• ER≥2.0 without valspodar, and reduced by ≥50% with valspodar: Positive • ER≥2.0 without valspodar, and reduced by <50% with valspodar: Negative • ER<2.0 without and with valspodar: Negative

Series [2] concerns the target T1, P-gp. The experiment in a line: MDR1-MDCK P-gp Substrate Identification (Example 2, +/- elacridar). The note with it: MDCK-MDR1, pH 7.4. As to the method:
MDCK epithelial cells stably transfected with the human MDR1 gene (the gene encoding for the efflux protein P-gp) were seeded on a Multiscreen™ plate (Millipore, MA, USA) and formed a confluent monolayer over 4 days prior to the experiment. To verify the MDR1-MDCK cell monolayers were properly formed, aliquots of the cell buffers were analyzed by fluorescence to determine the transport of the impermeable dye Lucifer Yellow. Any deviations from control values are reported.
MDR1-MDCK cells were incubated with these buffers for 2 h, and the receiver side buffer was removed for analysis by LC-MS/MS.
The rate of passage of the test compounds through this cell monolayer barrier from apical to basolateral (A→B) in this bi-directional transport assay was used to determine the apparent permeability coefficient (Papp). Receiver, donor, and dosing solution concentrations were quantified using a calibration curve prepared in transport buffer solution (pH 7.4). Papp is calculated as
where dQ/dt is rate of permeation, C0 is initial concentration of test agent, and A is the area of monolayer (0.11 cm^2). The basolateral to apical (B→A) to apical to basolateral (A→B) apparent permeability coefficient ratio
When RE>2 for a tested compound, the tested compound is a potential substrate for P-gp.
Rantinidine, talinolol, warfarin, and loperamide (±2 μM elacridar) were tested as reference compounds and each was tested at a concentration of 10 μM.

The mark [3] stands for this setting: 144 h, 0 to 1000 nM, Table 5, read-out: IC50 MV4;11-PGP (Compound + DMSO).
Setting [4] is: 144 h, 0 to 1000 nM, Table 6, read-out: IC50 MV4;11-PGP (Compound + DMSO).
Where [5] appears, read: posaconazole (1.5 (unit uncertain)), Table 5, read-out: IC50 MV4;11-PGP (Compound + posaconazole).
The mark [6] stands for this setting: valspodar (1 (unit uncertain)), Table 6, read-out: IC50 MV4;11-PGP (Compound + valspodar).
The mark [7] stands for this setting: 144 h, 0 to 1000 nM, Table 5, read-out: IC50 MV4;11-Control (Compound + DMSO).
Where [8] appears, read: 144 h, 0 to 1000 nM, Table 6, read-out: IC50 MV4;11-Control (Compound + DMSO).
Setting [9] is: posaconazole (1.5 (unit uncertain)), Table 5, read-out: IC50 MV4;11-Control (Compound + posaconazole).
[10] abbreviates: valspodar (1 (unit uncertain)), Table 6, read-out: IC50 MV4;11-Control (Compound + valspodar).

The IC50 is the concentration that gives 50% inhibition. Usually Papp A→B stands for how fast a substance crosses the layer from the apical side. As usually defined, the Papp B→A is how fast a substance crosses the layer from the basolateral side. The Papp is the rate of passage across a membrane or cell layer, normalised by area and donor concentration.

Where two headings read alike, the source gives them in different places.

T1 sequence (P08183 whole entry): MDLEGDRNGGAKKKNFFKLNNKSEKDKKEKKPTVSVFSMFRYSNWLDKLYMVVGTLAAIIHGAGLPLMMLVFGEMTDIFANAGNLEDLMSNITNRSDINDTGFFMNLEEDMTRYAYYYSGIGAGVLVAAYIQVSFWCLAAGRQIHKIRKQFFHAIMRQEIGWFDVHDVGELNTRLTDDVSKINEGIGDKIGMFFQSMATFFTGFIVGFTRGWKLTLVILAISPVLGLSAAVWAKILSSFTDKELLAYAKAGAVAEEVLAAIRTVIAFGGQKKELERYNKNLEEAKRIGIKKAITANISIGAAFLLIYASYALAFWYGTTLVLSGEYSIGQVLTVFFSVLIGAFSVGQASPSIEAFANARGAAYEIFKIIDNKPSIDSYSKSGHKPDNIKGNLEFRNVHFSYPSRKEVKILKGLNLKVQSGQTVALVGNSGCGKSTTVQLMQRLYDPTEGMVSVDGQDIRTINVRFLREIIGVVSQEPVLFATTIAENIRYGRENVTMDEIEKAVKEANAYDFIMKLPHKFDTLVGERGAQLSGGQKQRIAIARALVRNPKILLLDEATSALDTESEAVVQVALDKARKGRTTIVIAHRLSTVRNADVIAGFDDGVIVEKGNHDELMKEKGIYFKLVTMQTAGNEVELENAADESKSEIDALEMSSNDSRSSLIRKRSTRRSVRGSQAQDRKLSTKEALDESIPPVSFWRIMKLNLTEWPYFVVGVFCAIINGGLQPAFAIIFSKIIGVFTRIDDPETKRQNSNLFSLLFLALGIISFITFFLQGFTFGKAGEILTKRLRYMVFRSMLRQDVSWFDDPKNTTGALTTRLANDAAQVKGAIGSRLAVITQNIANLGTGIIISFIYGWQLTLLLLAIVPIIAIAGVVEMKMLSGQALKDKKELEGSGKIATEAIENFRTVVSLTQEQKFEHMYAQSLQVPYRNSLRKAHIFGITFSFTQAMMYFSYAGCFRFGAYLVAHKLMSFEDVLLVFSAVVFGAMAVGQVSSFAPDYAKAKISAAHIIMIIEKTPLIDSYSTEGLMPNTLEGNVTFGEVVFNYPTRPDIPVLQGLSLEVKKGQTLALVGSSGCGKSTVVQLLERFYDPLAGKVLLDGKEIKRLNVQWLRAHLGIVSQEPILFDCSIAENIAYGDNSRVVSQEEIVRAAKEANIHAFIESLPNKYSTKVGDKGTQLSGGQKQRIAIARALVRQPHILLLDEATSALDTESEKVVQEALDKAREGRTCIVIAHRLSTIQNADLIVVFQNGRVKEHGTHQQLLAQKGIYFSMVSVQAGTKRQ

On to `COc1cc(-c2ccc(CN[C@H]3C[C@@H](O)[C@@H](N(C)c4ncnc5sc(CC(F)(F)F)cc45)C3)cc2)nnc1OC` [Compound A], for which the IC50 with MV4;11-PGP cell line (setting [3]) came to 0.022 µM; with MV4;11-PGP cell line (setting [4]), 0.0213 µM; in the series with MV4;11-PGP cell line (setting [5]) it was 0.00491 µM; in the series with MV4;11-PGP cell line (setting [6]), 0.00241 µM; in the series with MV4;11-Control cell line (setting [7]), 0.00228 µM; with MV4;11-Control cell line (setting [8]), 0.00207 µM. Also, the IC50 worked out at 0.00201 µM in the series with MV4;11-Control cell line (setting [9]) and 0.0021 µM in the series with MV4;11-Control cell line (setting [10]).
Consider `CCN(C(=O)c1cc(F)ccc1Oc1nncnc1N1CCC2(C1)CN([C@H](CCCN(C)CCOC)C(C)C)C2)C(C)C` [Compound B], for which the IC50 is 0.108 µM in the series with MV4;11-PGP cell line (setting [3]); 0.114 µM in the series on MV4;11-PGP cell line (setting [4]); 0.00591 µM in the series with MV4;11-PGP cell line (setting [5]); 0.00315 µM in the series with MV4;11-PGP cell line (setting [6]); 0.00332 µM with MV4;11-Control cell line (setting [7]); 0.0041 µM with MV4;11-Control cell line (setting [8]). Further, the IC50 in the series with MV4;11-Control cell line (setting [9]) amounted to 0.00251 µM; in the series on MV4;11-Control cell line (setting [10]), 0.003 µM.
Turning to `C=CC(=O)N[C@@H]1CCCN(Cc2ccnc(C(=O)Nc3ccc(-c4cc5c(N6CCOCC6)ncnc5[nH]4)cc3)c2)C1` [Compound C], the IC50 in the series with MV4;11-PGP cell line (setting [3]) amounted to 0.716 µM; with MV4;11-PGP cell line (setting [4]), 0.764 µM; with MV4;11-PGP cell line (setting [5]), 0.349 µM; in the series with MV4;11-PGP cell line (setting [6]), 0.231 µM; in the series with MV4;11-Control cell line (setting [7]), 0.236 µM; in the series with MV4;11-Control cell line (setting [8]), 0.267 µM. The values for the IC50 with MV4;11-Control cell line (setting [9]) and with MV4;11-Control cell line (setting [10]) were 0.222 µM and 0.23 µM, respectively.
As for `C[C@H]1O[C@@H](O[C@H]2[C@@H](O)C[C@H](O[C@H]3[C@@H](O)C[C@H](O[C@H]4CC[C@@]5(C)[C@H](CC[C@@H]6[C@@H]5C[C@@H](O)[C@]5(C)[C@@H](C7=CC(=O)OC7)CC[C@]65O)C4)O[C@@H]3C)O[C@@H]2C)C[C@H](O)[C@@H]1O` [Digoxin], at P-gp [1], the “B-to-A Papp (cell batch quality control)” value was 17.6 10^−6 cm/s and the “efflux ratio (cell batch quality control)” value turned out to be 243. The Papp A→B at P-gp [1] (dog, read-out: A-to-B Papp (cell batch quality control)) is 0.07 ×10⁻⁶ cm/s.
At P-gp [2], `CN(C)C(=O)C(CCN1CCC(O)(c2ccc(Cl)cc2)CC1)(c1ccccc1)c1ccccc1` [Loperamide] showed a Papp A→B at 2 h of 0.792 ×10⁻⁶ cm/s and a Papp B→A at 2 h of 61.2 ×10⁻⁶ cm/s.
In the case of `CC(C)NCC(O)COc1cccc2ccccc12` (stereo not shown) [Propanolol], the Papp at P-gp [1] (dog, read-out: Papp (cell batch quality control)) stood at 15 ×10⁻⁶ cm/s.
On P-gp [2], `CNC(=C[N+](=O)[O-])NCCSCc1ccc(CN(C)C)o1` [Ranitidine] registered a Papp A→B at 2 h of 0.0514 ×10⁻⁶ cm/s and a Papp B→A at 2 h of 4.35 ×10⁻⁶ cm/s.
On the same counts, the results for `CC(=O)CC(c1ccccc1)c1c(O)c2ccccc2oc1=O` (stereo not shown) [Warfarin] are 21.5 ×10⁻⁶ cm/s and 32.3 ×10⁻⁶ cm/s.

The values above are taken from patent US20250152591A1, “TREATMENT OF HEMATOLOGICAL MALIGNANCIES WITH MENIN INHIBITORS AND P-GLYCOPROTEIN INHIBITORS” (Kura Oncology, Inc., priority 2022, published 2025).
